{"source": "patent US12485134B2", "about": "“Use of nicotinamide riboside, nicotinic acid riboside, reduced nicotinyl riboside compounds, and nicotinyl riboside compound derivatives in formulations” (ChromaDex Inc., priority 2019, dated 2025)", "key": {"[1]": {"test_system": "milk concentrate proteins", "test": "WaterLOGSY NMR binding of NR-Cl", "conditions": "milk concentrate, pH 7.0", "description": "(§1) WaterLOGSY is a sensitive ligand-observed NMR experiment designed for the screening of protein ligands from a mixture of potential binders. […] The experiment relies on fast dissociation of bound ligands to carry into the free state magnetisation originating from irradiated water that has been transmitted via the protein complex.\n(§2) NMR samples for WaterLOGSY were prepared as follows. Ligand-detect WaterLOGSY experiments were carried at 600 MHz with 5-mm cryoprobe and using 5-mm NMR tubes. Each NMR sample for WaterLOGSY contained ˜0.05 mg (˜0.35 mM), using unlabeled ligand NR-Cl (“NR”), in a NMR buffer containing ˜0.5 mL 90% H2O/10% ^2H2O at pH 7.0 with or without the milk and soy protein mix (compared to the WaterLOGSY of NR as a negative control). Protein was added as a powder with a minimal 15 to 50 μM concentration. Typically, the final NMR sample of protein-compound mixtures had >20-fold higher compound concentration of ligand compared to that of the protein. Denatured samples were prepared by simply heating (80° C. for 15-20 mins) the aqueous (5-10% ^2H2O) protein mixture (in absence of NR).\nThe NR only WaterLOGSY spectrum (FIG. 23) was the negative control to screen for any potential binding of NR-Cl to milk concentrate and soy isolate proteins as shown herein and discussed below."}, "[2]": {"test_system": "milk proteins", "test": "WaterLOGSY NMR, direct binding of 15N-labeled NR to milk proteins", "conditions": "no milk, 150 μL and 300 μL of milk", "source_text": "Whey protein fraction and casein protein have been identified as leading candidates to bind directly to and stabilize nicotinamide riboside (NR, I) in milk. The addition of these proteins in particular (either alone or in combination with other proteins and/or vitamins) in order to stabilize nicotinamide riboside (NR, I) in liquid constitutes another embodiment of a method of delivery of the present invention. […] In this experiment, Water-Ligand Observed via Gradient Spectroscopy (WaterLOGSY NMR) was used to detect direct binding of stable, isotope-labeled (^15N) nicotinamide riboside (NR, I) to milk proteins. This is visualized as a concentration-dependent shift in the nicotinamide riboside (NR, I) spectra with increasing additions of milk. The concentric shapes shifts from left to right are the results of addition of no milk, 150 μL of milk, and 300 μL of milk, respectively."}, "[3]": {"test": "Recovery of NR added to store bought (cow) milk, HILIC/HPLC/UV", "type": "physicochemical", "conditions": "cow's milk and human breast milk", "description": "Nicotinamide riboside (NR, I) is also naturally found in milk. […] FIGS. 2B and 2C are control chromatograms showing detection of nicotinamide riboside (NR, I) after adding nicotinamide riboside (NR, I) to the milk sample at a known amount. […] The calculated recovery of the 1% nicotinamide riboside (NR, I) was close to 100%. […] Centrifugation was then performed to remove any precipitate, and the supernatant was analyzed using an HILIC/HPLC/UV using standard methods."}, "[4]": {"conditions": "mice on a high-fat diet supplemented with NR; cited from earlier work"}, "[5]": {"test_system": "protein components of a meal replacement beverage", "test": "WaterLOGSY NMR binding of NR-Cl", "conditions": "meal replacement beverage containing soy protein isolate and milk protein concentrate", "description": "as §1, §2\nThe beverage that was tested contained soy protein isolate and milk protein concentrate and it could only be either of these ingredients that could contribute to the positive result that was observed. […]"}, "[6]": {"test": "Degradation tracking of 15N NR-Cl to 15N nicotinamide by 15N-1H HMBC and 1H NMR, with or without whey protein", "type": "physicochemical", "description": "A series of 1D ^1H and 1D ^15N-^1H HMBC experiments were collected on a 600 MHz Bruker instrument with 5-mm cryoprobe and using 5-mm NMR tubes. Each sample contains ˜10 mM ^15N isotope labeled NR-Cl (or non-isotope), in a solution containing ˜0.5 mL 90% H2O/10% ^2H2O buffered at pH values of 7.0 (5 mM PBS) and 9.0 (50 mM Glycine/Sodium hydroxide), with or without whey protein. The NMR tube was incubated at 25° C. and data collected at 1, 3 and 7 days. The NMR results provided evidence of binding to milk and soy protein and provided evidence of increased stability in combination with Whey protein at different pH over a 7 day time-course.\nFIG. 22 highlights the corresponding ^1H-NMR data for the increased stability of the NR-Cl at day 7 under pH 7 and 9 buffered conditions, compared to control.\nThe integrations for the peaks corresponding to ^15N NR-Cl and ^15N nicotinamide were measured for the degradation that had occurred to ^15N—NR-Cl from Day 1 to Day 7. […] The half-life for ^15N NR-Cl in buffered pH 9 conditions- improved from 2.7 days (control) to 10 days in the presence of Whey protein."}, "[7]": {"test_system": "hydrolyzed whey protein isolate", "test": "NR-Cl binding to hydrolyzed whey protein isolate (10 kDa cutoff filtration, unbound NR-Cl in filtrate by HPLC)", "conditions": "hydrolyzed whey protein isolate solutions, ambient and refrigerated", "description": "A. Solutions of hydrolyzed whey protein isolate (>90% protein, 2-7% degree of hydrolysis) were prepared at varying concentrations and filtered through 0.2 μm sterile filters. An aliquot of sterile nicotinamide riboside chloride (“NR-Cl,” a salt of NR, I) in water solution was spiked into the sterile whey solutions, targeting a final NR-Cl concentration of 1 mmol per liter (0.3 mg/mL). The solutions containing the mixture of hydrolyzed whey and NR-Cl were filtered through 10 kDa molecular weight cutoff centrifuge filters to remove the whey proteins (14-80 kDa) and any NR-Cl that was bound to the proteins. Any NR-Cl that was not bound to the whey proteins was recovered in the filtrate and quantitated by HPLC.\nThe solutions of hydrolyzed whey protein isolate and NR-Cl were stored at ambient and refrigerated conditions and analyzed at various timepoints for NR-Cl protein binding and stability.\nA study measuring the stability of NR-Cl in hydrolyzed and non-hydrolyzed whey protein was conducted with 2 mmol/L NR-Cl (0.6 mg/mL) and 20 mg/mL protein (33.3:1 wt:wt protein:NR-Cl). […] (See Table 5)."}}, "data": [{"smiles": "NC(=O)c1ccc[n+]([C@@H]2O[C@H](CO)[C@@H](O)[C@H]2O)c1", "note": "[NR, Nicotinamide riboside]", "values": [{"measurement": "WaterLOGSY binding", "setting": "[1]", "value": "comparatively weaker binding"}, {"measurement": "direct binding to milk proteins (WaterLOGSY, concentration-dependent shift)", "setting": "[2]", "value": "binds to proteins in milk"}, {"measurement": "stability in milk", "setting": "[3]", "value": "stable in milk"}, {"measurement": "less weight gained", "setting": "[4]", "value": 40, "unit": "%"}, {"measurement": "WaterLOGSY binding", "setting": "[5]", "value": "strongest evidence of NR binding"}]}, {"smiles": "NC(=O)c1ccc[15n+]([C@@H]2O[C@H](CO)[C@@H](O)[C@H]2O)c1", "note": "[^15N NR-Cl, ^15N-labeled nicotinamide riboside chloride]", "values": [{"measurement": "half-life", "setting": "[6]; PBS buffer with whey protein, buffered pH 7, 25° C., in the presence of Whey protein", "value": 28, "unit": "days"}, {"measurement": "half-life", "setting": "[6]; PBS buffer without whey protein (control), buffered pH 7, 25° C., control (without Whey protein)", "value": 3.4, "unit": "days"}, {"measurement": "half-life", "setting": "[6]; buffered pH 9, 25° C., control (without Whey protein)", "value": 2.7, "unit": "days"}, {"measurement": "half-life", "setting": "[6]; glycine/sodium hydroxide buffer with whey protein, buffered pH 9, 25° C., in the presence of Whey protein", "value": 10, "unit": "days"}, {"measurement": "rate of degradation in the presence of Whey protein", "setting": "[6]; pH 7.0 and 9.0, days 1, 3 and 7", "value": "slower than the control"}]}, {"smiles": "NC(=O)c1cccnc1", "note": "[nicotinamide]", "values": [{"measurement": "binding to whey", "setting": "[7]", "value": "not observed to bind"}]}]}
